Measurements as given in patent US11077123B2 (priority 2016, dated 2021).

Experiments:
[1] = system: pESI conjugation between S. Infantis 119944 (donor) and E. coli ORN172 (recipient); experiment: pESI conjugation (mating) experiments on LB agar plates; assay type: cell-based, Salmonella enterica serovar Infantis; E. coli; conditions: pESI transfer, LB agar plates supplemented with 2% (w/v) of the substance
[2] = system: S. Infantis and the E. coli strains; experiment: Bacterial viability / growth in the conjugation experiments; assay type: cell-based, Salmonella enterica serovar Infantis; E. coli; conditions: 2% of the substance
Clostridium perfringens = conditions: varying concentrations; cited from earlier work

Compound | conjugation frequency [1] | growth (rate) of S. Infantis and the E. coli strains [2] | bacterial viability (Clostridium perfringens)
C[C@H](CCC(=O)O)[C@H]1CC[C@H]2[C@@H]3[C@H](O)C[C@@H]4C[C@H](O)CC[C@]4(C)[C@H]3C[C@H](O)[C@]12C [cholic acid] | significant decrease |  | 
C[C@H](CCC(=O)O)[C@H]1CC[C@H]2[C@@H]3[C@H](O)C[C@@H]4C[C@H](O)CC[C@]4(C)[C@H]3CC[C@]12C [chenodeoxycholic acid] | transconjugants in the presence of these regents were not produced | inhibited the growth | 
C[C@H](CCC(=O)NCCS(=O)(=O)O)[C@H]1CC[C@H]2[C@@H]3[C@H](O)C[C@@H]4C[C@H](O)CC[C@]4(C)[C@H]3CC[C@]12C [taurine-conjugated chenodeoxycholic acid] |  |  | significantly reduced bacterial viability
NCC(=O)O [glycine] | transconjugants in the presence of these regents were not produced | inhibited the growth | 
C[C@H](CCC(=O)O)[C@H]1CC[C@H]2[C@@H]3CC[C@@H]4C[C@H](O)CC[C@]4(C)[C@H]3CC[C@]12C [lithocholic acid, 3α-hydroxy-5β-cholan-24-oic acid] | significant decrease | no effect on the growth rate | 
C[C@H](CCC(=O)NCC(=O)O)[C@H]1CC[C@H]2[C@@H]3[C@H](O)C[C@@H]4C[C@H](O)CC[C@]4(C)[C@H]3CC[C@]12C [glycine-conjugated chenodeoxycholic acid] |  |  | significantly reduced bacterial viability
NCCS(=O)(=O)O [taurine, 2-aminoethanesulfonic acid] | inhibit conjugation to a lower degree | no effect on the growth rate | 
